Measured values as given in US9932340B2, “Substituted indoles” (AbbVie Inc., priority 2014, dated 2018).

Each molecule was assayed against SUV420H1 enzyme (Homo sapiens, UniProt Q4FZB7) (assay: TR-FRET SAH SUV420H1 enzyme inhibition assay). Conditions: Histone Peptide H4(8-30)me1 and SAM, overnight at room temp, TR-FRET detection of SAH, read-out: TR-FRET SAH_SUV420H1 IC50.
Assay type: biochemical
How it was run: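 SUV420H1 (90 nM) preincubated 30 min with compound (3-fold dilutions, 50 to 0.00075 μM), then H4(8-30)me1 peptide 5 nM and SAM 4 nM added, overnight at room temp. SAH product detected by TR-FRET with Tb anti-SAH antibody and Oregon Green-SAH in RIPA buffer, 4 h; IC50 from Hill fit, asymptotes fixed 0-100%.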

Chain of SUV420H1 enzyme (Q4FZB7 whole entry): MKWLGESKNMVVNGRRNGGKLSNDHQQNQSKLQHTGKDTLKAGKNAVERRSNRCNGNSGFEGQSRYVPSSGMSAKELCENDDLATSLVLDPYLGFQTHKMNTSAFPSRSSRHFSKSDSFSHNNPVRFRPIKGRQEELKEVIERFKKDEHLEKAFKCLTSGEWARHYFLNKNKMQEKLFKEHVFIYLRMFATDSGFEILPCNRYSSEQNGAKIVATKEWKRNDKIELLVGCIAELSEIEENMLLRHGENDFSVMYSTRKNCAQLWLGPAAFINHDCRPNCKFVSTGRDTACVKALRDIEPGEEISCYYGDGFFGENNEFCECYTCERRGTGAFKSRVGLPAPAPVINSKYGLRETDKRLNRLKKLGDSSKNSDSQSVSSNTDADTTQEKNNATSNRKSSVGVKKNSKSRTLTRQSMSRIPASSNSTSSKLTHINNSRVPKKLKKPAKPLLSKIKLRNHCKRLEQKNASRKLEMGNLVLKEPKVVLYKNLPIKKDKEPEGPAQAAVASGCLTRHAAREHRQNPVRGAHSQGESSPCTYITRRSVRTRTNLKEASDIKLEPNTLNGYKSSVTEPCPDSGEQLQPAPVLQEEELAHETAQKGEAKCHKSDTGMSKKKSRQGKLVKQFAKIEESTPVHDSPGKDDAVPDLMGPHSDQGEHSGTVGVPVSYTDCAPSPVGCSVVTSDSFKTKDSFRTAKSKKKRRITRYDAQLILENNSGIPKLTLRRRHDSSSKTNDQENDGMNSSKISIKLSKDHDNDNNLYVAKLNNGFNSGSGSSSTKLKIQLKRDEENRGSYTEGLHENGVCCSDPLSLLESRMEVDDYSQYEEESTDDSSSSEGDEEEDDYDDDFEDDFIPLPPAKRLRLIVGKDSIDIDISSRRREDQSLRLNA

Question: `Nc1ncnc2c1ncn2Cc1cc(Cl)cc2cc(CNC(=O)c3ccc4[nH]ncc4c3F)[nH]c12` [Example 350, N-({7-[(6-amino-9H-purin-9-yl)methyl]-5-chloro-1H-indol-2-yl}methyl)-4-fluoro-1H-indazole-5-carboxamide] was tested. Which IC50 did it give?
Answer: Its IC50 is 2740 nM.

Question: Which IC50 does the source give for `Cc1noc2ncc(C(=O)NCc3cc4cc(Cl)cc(Cn5cnc6c(N)ncnc65)c4[nH]3)cc12` [Example 351, N-({7-[(6-amino-9H-purin-9-yl)methyl]-5-chloro-1H-indol-2-yl}methyl)-3-methyl[1,2]oxazolo[5,4-b]pyridine-5-carboxamide] here?
Answer: The IC50 was 393 nM.

Question: Which IC50 does the source give for `Cn1nnc2cc(C(=O)NCc3cc4cc(Cl)cc(Cn5cnc6c(N)ncnc65)c4[nH]3)ccc21` [Example 352, N-({7-[(6-amino-9H-purin-9-yl)methyl]-5-chloro-1H-indol-2-yl}methyl)-1-methyl-1H-benzotriazole-5-carboxamide] here?
Answer: The IC50 was 1280 nM.

Question: Which IC50 does the source give for `Cc1n[nH]c2ncc(C(=O)NCc3cc4cc(Cl)cc(Cn5cnc6c(N)ncnc65)c4[nH]3)cc12` [Example 353, N-({7-[(6-amino-9H-purin-9-yl)methyl]-5-chloro-1H-indol-2-yl}methyl)-3-methyl-1H-pyrazolo[3,4-b]pyridine-5-carboxamide] here?
Answer: Its IC50 is > 50000 nM.

Question: With `Nc1ncnc2c1ncn2Cc1cc(Cl)cc2cc(CNC(=O)c3ccc4sccc4c3)[nH]c12` [Example 354, N-({7-[(6-amino-9H-purin-9-yl)methyl]-5-chloro-1H-indol-2-yl}methyl)-1-benzothiophene-5-carboxamide] as the molecule, how does the IC50 read?
Answer: Its IC50 is 5960 nM.

Question: How did the IC50 turn out when `Nc1ncnc2c1ncn2Cc1cc(Cl)cc2cc(CNC(=O)c3ccc4occc4c3)[nH]c12` [Example 355, N-({7-[(6-amino-9H-purin-9-yl)methyl]-5-chloro-1H-indol-2-yl}methyl)-1-benzofuran-5-carboxamide] was run?
Answer: The IC50 was 4870 nM.

Question: `Nc1ncnc2c1ncn2Cc1cc(Cl)cc2cc(CNC(=O)c3ccc4cc[nH]c4c3)[nH]c12` [Example 356, N-({7-[(6-amino-9H-purin-9-yl)methyl]-5-chloro-1H-indol-2-yl}methyl)-1H-indole-6-carboxamide] was tested. Which IC50 did it give?
Answer: The IC50 was 2650 nM.

Question: How did the IC50 turn out when `Nc1ncnc2c1ncn2Cc1cc(Cl)cc2cc(CNC(=O)c3ccc4[nH]ccc4c3)[nH]c12` [Example 357, N-({7-[(6-amino-9H-purin-9-yl)methyl]-5-chloro-1H-indol-2-yl}methyl)-1H-indole-5-carboxamide] was run?
Answer: The IC50 was 12000 nM.

Question: For `Cc1nc2ccc(C(=O)NCc3cc4cc(Cl)cc(Cn5cnc6c(N)ncnc65)c4[nH]3)cc2s1` [Example 358, N-({7-[(6-amino-9H-purin-9-yl)methyl]-5-chloro-1H-indol-2-yl}methyl)-2-methyl-1,3-benzothiazole-6-carboxamide], which IC50 is on record?
Answer: Its IC50 is 889 nM.

Question: For `Cc1nc2ccc(C(=O)NCc3cc4cc(Cl)cc(Cn5cnc6c(N)ncnc65)c4[nH]3)cc2o1` [Example 359, N-({7-[(6-amino-9H-purin-9-yl)methyl]-5-chloro-1H-indol-2-yl}methyl)-2-methyl-1,3-benzoxazole-6-carboxamide], which IC50 is on record?
Answer: Its IC50 is 4280 nM.

Question: Which IC50 does the source give for `Cn1ncc2ccc(C(=O)NCc3cc4cc(Cl)cc(Cn5cnc6c(N)ncnc65)c4[nH]3)cc21` [Example 360, N-({7-[(6-amino-9H-purin-9-yl)methyl]-5-chloro-1H-indol-2-yl}methyl)-1-methyl-1H-indazole-6-carboxamide] here?
Answer: The IC50 was 747 nM.

Question: For `Cn1cnc2cc(C(=O)NCc3cc4cc(Cl)cc(Cn5cnc6c(N)ncnc65)c4[nH]3)ccc21` [Example 361, N-({7-[(6-amino-9H-purin-9-yl)methyl]-5-chloro-1H-indol-2-yl}methyl)-1-methyl-1H-benzimidazole-5-carboxamide], which IC50 is on record?
Answer: Its IC50 is 2150 nM.

Question: With `Cn1ncc2cc(C(=O)NCc3cc4cc(Cl)cc(Cn5cnc6c(N)ncnc65)c4[nH]3)ccc21` [Example 362, N-({7-[(6-amino-9H-purin-9-yl)methyl]-5-chloro-1H-indol-2-yl}methyl)-1-methyl-1H-indazole-5-carboxamide] as the molecule, how does the IC50 read?
Answer: Its IC50 is 636 nM.
